Results reported in patent US11919892B1, “2-(benzo[d]thiazol-2-yl)-N'-(2-(5-(4-chlorophenyl)-1,3,4-oxadiazol-2-ylthio)acetoxy)acetimidamide as an antimicrobial compound” (KING FAISAL UNIVERSITY, priority 2023, dated 2024).

Experiments:
Aspergillus flavus = assay: Agar plate disc-diffusion, antifungal, Aspergillus flavus; type: cell-based; settings: Sabouraud's dextrose agar, 72 hours
Experimental: (§1) The agar plate disc-diffusion method was applied. Sterilized filter papers (6 mm in diameter) were wetted with 10 μL of a solution of 2-(benzo[d]thiazol-2-yl)-N′-(2-(5-(4-chlorophenyl)-1, 3,4-oxadiazol-2-ylthio)acetoxy)acetimidamide (3) to be tested, containing 10 mg/mL in DMSO, and the discs were allowed to air dry. The discs were then placed onto the surface of agar plates (nutrient agar for bacteria and Sabouraud's dextrose agar for fungi) seeded with the test organism. Each plate contained 15 mL of the agar medium, previously seeded with 0.2 mL of the broth culture of each organism pregrown for 18 hours. The plates were incubated at 37° C. for 48 hours and 72 hours for fungi. The inhibition zones were measured in mm. Discs impregnated with DMSO were used as a control, and their inhibition zone was subtracted from the tested compound's actual inhibition zone.

Staphylococcus aureus = assay: Agar plate disc-diffusion, antibacterial, Staphylococcus aureus; type: cell-based; settings: nutrient agar, 37° C., 48 hours
Experimental: as §1

Pseudomonas aeruginosa = assay: Agar plate disc-diffusion, antibacterial, Pseudomonas aeruginosa; type: cell-based; settings: nutrient agar, 37° C., 48 hours
Experimental: as §1

Bacillus Cereus = assay: Agar plate disc-diffusion, antibacterial, Bacillus cereus; type: cell-based; settings: nutrient agar, 37° C., 48 hours
Experimental: as §1

Escherichia coli = assay: Agar plate disc-diffusion, antibacterial, Escherichia coli; type: cell-based; settings: nutrient agar, 37° C., 48 hours
Experimental: as §1

[1] = tested on: Chrysosporium keratinophilum; assay: Agar plate disc-diffusion, antifungal, Chrysosporium keratinophilum; type: cell-based; settings: Sabouraud's dextrose agar, 72 hours
Experimental: as §1

[2] = A = concentration of comp. = 10,000 μL
[3] = B = concentration of comp. = 30,000 μL
[4] = C = concentration of comp. = 50,000 μL

## N/C(Cc1nc2ccccc2s1)=N\OC(=O)CSc1nnc(-c2ccc(Cl)cc2)o1 [compound 3, 2-(benzo[d]thiazol-2-yl)-N′-(2-(5-(4-chlorophenyl)-1,3,4-oxadiazol-2-ylthio)acetoxy)acetimidamide]
Aspergillus flavus; [2]
  inhibition zone, Aspergillus flavus, A: 24 mm
Aspergillus flavus; [3]
  inhibition zone, Aspergillus flavus, B: 29 mm
Aspergillus flavus; [4]
  inhibition zone, Aspergillus flavus, C: 41 mm
other
  melting point: 157 to 158 °C
Staphylococcus aureus; [2]
  inhibition zone, Staphylococcus aureus, A: 33 mm
Staphylococcus aureus; [3]
  inhibition zone, Staphylococcus aureus, B: 40 mm
Staphylococcus aureus; [4]
  inhibition zone, Staphylococcus aureus, C: 52 mm
Pseudomonas aeruginosa; [2]
  inhibition zone, Pseudomonas aeruginosa, A: 23 mm
Pseudomonas aeruginosa; [3]
  inhibition zone, Pseudomonas aeruginosa, B: 27 mm
Pseudomonas aeruginosa; [4]
  inhibition zone, Pseudomonas aeruginosa, C: 43 mm
Bacillus Cereus; A =
  inhibition zone, Bacillus Cereus, A: 25 mm
Bacillus Cereus; [3]
  inhibition zone, Bacillus Cereus, B: 28 mm
Bacillus Cereus; [4]
  inhibition zone, Bacillus Cereus, C: 39 mm
Escherichia coli; [2]
  inhibition zone, Escherichia coli, A: 25 mm
Escherichia coli; [3]
  inhibition zone, Escherichia coli, B: 34 mm
Escherichia coli; [4]
  inhibition zone, Escherichia coli, C: 47 mm
[1]; [2]
  inhibition zone, Chrysosporium keratinophilum, A: 26 mm
[1]; [3]
  inhibition zone, Chrysosporium keratinophilum, B: 31 mm
[1]; [4]
  inhibition zone, Chrysosporium keratinophilum, C: 49 mm
